In the supplement of paper PMC11451515:

Tested on: P12-Ichikawa
Test: cell viability relative to DMSO control; higher = less cytotoxic
Details: 48 h
In short: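 Before seeding, each leukemia line was adapted for at least four passages in each medium. NOMO1 or SEM cells (500 cells/well) and P12-Ichikawa cells (1000 cells/well) went into 1536-well plates at 5 μl, then received library compounds in DMSO by pin dosing across 11 threefold concentrations, 47 μM to 0.79 nM. Readout was CellTiter-Glo One luminescence after 48 h at 37°C, and viability is given as a per-plate percentage of DMSO wells, with cell-free wells as background.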

[1] = HPLM + 10% dialyzed FBS, 0.000781 µM
[2] = HPLM + 10% dialyzed FBS, 0.00234 µM
[3] = HPLM + 10% dialyzed FBS, 0.00702 µM
[4] = HPLM + 10% dialyzed FBS, 0.0211 µM
[5] = HPLM + 10% dialyzed FBS, 0.0632 µM
[6] = HPLM + 10% dialyzed FBS, 0.19 µM
[7] = HPLM + 10% dialyzed FBS, 0.569 µM
[8] = HPLM + 10% dialyzed FBS, 1.71 µM
[9] = HPLM + 10% dialyzed FBS, 5.12 µM
[10] = HPLM + 10% dialyzed FBS, 15.4 µM
[11] = HPLM + 10% dialyzed FBS, 46.1 µM
[12] = RPMI 5 mM glucose + 10% FBS, 0.000781 µM
[13] = RPMI 5 mM glucose + 10% FBS, 0.00234 µM
[14] = RPMI 5 mM glucose + 10% FBS, 0.00702 µM
[15] = RPMI 5 mM glucose + 10% FBS, 0.0211 µM
[16] = RPMI 5 mM glucose + 10% FBS, 0.0632 µM
[17] = RPMI 5 mM glucose + 10% FBS, 0.19 µM
[18] = RPMI 5 mM glucose + 10% FBS, 0.569 µM
[19] = RPMI 5 mM glucose + 10% FBS, 1.71 µM
[20] = RPMI 5 mM glucose + 10% FBS, 5.12 µM
[21] = RPMI 5 mM glucose + 10% FBS, 15.4 µM
[22] = RPMI 5 mM glucose + 10% FBS, 46.1 µM
[23] = RPMI 5 mM glucose + 10% dialyzed FBS, 0.000781 µM
[24] = RPMI 5 mM glucose + 10% dialyzed FBS, 0.00234 µM
[25] = RPMI 5 mM glucose + 10% dialyzed FBS, 0.00702 µM
[26] = RPMI 5 mM glucose + 10% dialyzed FBS, 0.0211 µM
[27] = RPMI 5 mM glucose + 10% dialyzed FBS, 0.0632 µM
[28] = RPMI 5 mM glucose + 10% dialyzed FBS, 0.19 µM
[29] = RPMI 5 mM glucose + 10% dialyzed FBS, 0.569 µM
[30] = RPMI 5 mM glucose + 10% dialyzed FBS, 1.71 µM
[31] = RPMI 5 mM glucose + 10% dialyzed FBS, 5.12 µM
[32] = RPMI 5 mM glucose + 10% dialyzed FBS, 15.4 µM
[33] = RPMI 5 mM glucose + 10% dialyzed FBS, 46.1 µM

Structure (SMILES) | cell viability [1] | cell viability [2] | cell viability [3] | cell viability [4] | cell viability [5] | cell viability [6] | cell viability [7] | cell viability [8] | cell viability [9] | cell viability [10] | cell viability [11] | cell viability [12] | cell viability [13] | cell viability [14] | cell viability [15] | cell viability [16] | cell viability [17] | cell viability [18] | cell viability [19] | cell viability [20] | cell viability [21] | cell viability [22] | cell viability [23] | cell viability [24] | cell viability [25] | cell viability [26] | cell viability [27] | cell viability [28] | cell viability [29] | cell viability [30] | cell viability [31] | cell viability [32] | cell viability [33]
Cc1ccccc1C(=O)c1ccc(Nc2ccc(Br)cc2N)cc1Cl | 117% | 122% | 119% | 104% | 114% | 118% | 114% | 114% | 105% | 98.6% | 51.5% | 117% | 122% | 121% | 110% | 119% | 108% | 117% | 113% | 111% | 108% | 53.7% | 117% | 121% | 127% | 119% | 122% | 118% | 117% | 111% | 105% | 89% | 35.5%
O=C(O)C1(Cc2cccc(Nc3nccs3)n2)CCC(Oc2cccc(Cl)c2F)CC1 (stereo not drawn) | 102% | 111% | 112% | 108% | 115% | 114% | 99.5% | 57.8% | 39.4% | 18.8% | 13.7% | 102% | 116% | 108% | 93.8% | 122% | 111% | 108% | 65.8% | 47.1% | 33.9% | 17.3% | 108% | 116% | 118% | 116% | 116% | 117% | 115% | 68.9% | 65.2% | 33.5% | 31.8%
CC(C)C1NC(=O)C(NC(=O)C2=C3\N=C\4/C(=C(C)\C(=O)\C(=C4C(=O)NC5C(C)OC(=O)C(C(C)C)N(C)C(=O)CN(C)C(=O)C6CCCN6C(=O)C(NC5=O)C(C)C)N)OC3=C(C)C=C2)C(C)OC(=O)C(C(C)C)N(C)C(=O)CN(C)C(=O)C7CCCN7C1=O (stereo not drawn) | 8.89% | 7.61% | 7.74% | 7.98% | 8.48% | 7.48% | 8.02% | 5.74% | 3.17% | 4.3% | 1.52% | 7.97% | 8.99% | 7.91% | 6.03% | 5.96% | 6.1% | 5.29% | 3.26% | 1.15% | 2.04% | 1.27% | 9.93% | 10.6% | 9.2% | 10.8% | 7.89% | 8.14% | 8.28% | 7.16% | 6.45% | 4.57% | 3.47%
Cc1onc(-c2ccccc2Cl)c1C(=O)N[C@@H]1C(=O)N2[C@@H]1SC(C)(C)[C@@H]2C(=O)[O-] | 112% | 116% | 113% | 116% | 113% | 113% | 113% | 111% | 110% | 105% | 106% | 119% | 117% | 113% | 111% | 116% | 114% | 116% | 110% | 117% | 101% | 101% | 103% | 111% | 115% | 119% | 126% | 109% | 120% | 105% | 112% | 98.4% | 98.1%
CN[C@@H](C)[C@H]1[C@H](O)C[C@@]2(C)[C@@H]3CC[C@H]4C(C)(C)[C@@H](NC)CC[C@@]45C[C@@]35CC[C@]12C | 92.3% | 97.3% | 84.8% | 98.4% | 96.5% | 100% | 98.8% | 102% | 103% | 97% | 96.3% | 95.4% | 89% | 81.6% | 94.4% | 103% | 98.8% | 89.3% | 105% | 81.9% | 105% | 91.9% | 85% | 91% | 83.8% | 90.1% | 93.2% | 98.8% | 89.3% | 92.6% | 81.7% | 93.8% | 79.4%
O=C(O)CCC1CCC(c2cc(F)ccc2F)([S+](=O)([O-])c2ccc(Cl)cc2)CC1 (stereo not drawn) | 105% | 114% | 117% | 115% | 114% | 121% | 128% | 118% | 86.7% | 21.5% | 9.14% | 99% | 125% | 117% | 126% | 118% | 116% | 128% | 140% | 109% | 24.3% | 9.78% | 103% | 117% | 123% | 123% | 123% | 118% | 124% | 125% | 112% | 56.7% | 13.2%
COc1cc(F)c(F)c(Nc2ccc(I)cc2F)c1N[S+](=O)([O-])C1(C[C@H](O)CO)CC1 | 114% | 107% | 110% | 116% | 111% | 112% | 110% | 108% | 106% | 89% | 42.7% | 110% | 123% | 128% | 113% | 112% | 104% | 115% | 118% | 115% | 96.4% | 74.8% | 123% | 120% | 126% | 118% | 116% | 104% | 118% | 122% | 123% | 97.3% | 58.2%
CC[S+](=O)([O-])c1cccc(-c2cc(C(=O)NC3CCN(C)CC3)c(C)c3[nH]c4ncc(C)cc4c23)c1 | 121% | 122% | 123% | 128% | 123% | 112% | 15.7% | 19.5% | 19% | 26.9% | 34.9% | – | – | – | – | – | – | – | – | – | – | – | – | – | – | – | – | – | – | – | – | – | –
COc1ccccc1OCC(O)COC(N)=O (stereo not drawn) | 88.2% | 107% | 103% | 109% | 109% | 107% | 111% | 117% | 111% | 112% | 58.1% | 112% | 118% | 117% | 114% | 120% | 118% | 124% | 106% | 118% | 126% | 125% | 93.1% | 105% | 101% | 107% | 110% | 103% | 110% | 101% | 113% | 117% | 106%
COc1ccc([C@@H]2CC(=O)c3c(O)cc(O[C@@H]4O[C@H](CO[C@@H]5O[C@@H](C)[C@H](O)[C@@H](O)[C@H]5O)[C@@H](O)[C@H](O)[C@H]4O)cc3O2)cc1O | 107% | 109% | 106% | 114% | 120% | 124% | 121% | 118% | 115% | 114% | 116% | 94.2% | 104% | 109% | 93.7% | 107% | 115% | 111% | 119% | 110% | 105% | 103% | 97.3% | 117% | 114% | 111% | 123% | 116% | 126% | 119% | 122% | 111% | 114%
O=C(C=CC#Cc1cccc(N[S+](=O)([O-])c2ccccc2)c1)NO | 110% | 113% | 118% | 116% | 119% | 114% | 103% | 92.7% | 3.67% | 3.02% | 3% | 113% | 119% | 116% | 123% | 117% | 116% | 122% | 75.6% | 6.32% | 3.14% | 2.9% | 113% | 114% | 117% | 121% | 117% | 117% | 113% | 80.4% | 3.83% | 2.6% | 2.95%
CC1(C)O[C@@H]2C[C@H]3[C@@H]4C[C@H](F)C5=CC(=O)C=C[C@]5(C)[C@@]4(F)[C@@H](O)C[C@]3(C)[C@]2(C(=O)CO)O1 | 107% | 110% | 99.4% | 83.8% | 71.1% | 56.4% | 69.1% | 60.7% | 52.6% | 62.9% | 53% | 106% | 99.4% | 96.4% | 78.7% | 55.4% | 53.2% | 50.2% | 53% | 51.7% | 46.4% | 43.5% | 74.9% | 103% | 94.6% | 67.9% | 50.8% | 46.7% | 47.6% | 42.5% | 40.6% | 36.8% | 30.4%
CC(C)N[C@@H]1CCn2c(=O)[nH]c3cccc(c32)[C@H]1O | 111% | 112% | 118% | 120% | 117% | 115% | 109% | 112% | 97.1% | 107% | 100% | 129% | 112% | 121% | 122% | 114% | 104% | 116% | 110% | 110% | 113% | 106% | 105% | 104% | 116% | 114% | 109% | 108% | 99.6% | 105% | 104% | 97.9% | 93.8%
OC[C@H]1O[C@H]([C@H](O)[C@@H]1O)N2\C=C/C(=O)NC2=O | 108% | 103% | 99.1% | 111% | 101% | 104% | 109% | 103% | 99.4% | 110% | 99.6% | 104% | 109% | 103% | 103% | 97.6% | 104% | 117% | 95.3% | 107% | 96% | 90.8% | 101% | 89.1% | 95.9% | 101% | 102% | 98.3% | 109% | 97.1% | 96% | 89.5% | 92.4%
c1ccc2[nH]c(-c3cscn3)nc2c1 | 115% | 124% | 124% | 128% | 122% | 128% | 122% | 122% | 108% | 86% | 74.6% | 113% | 118% | 110% | 122% | 128% | 120% | 128% | 120% | 135% | 117% | 90.7% | 124% | 131% | 122% | 124% | 130% | 127% | 130% | 121% | 125% | 109% | 72.9%
